# Assay results: patent publication US6355472B2, “Method for producing nucleoside-5′-phosphate ester” (Ajinomoto Co., Inc., priority 1996, dated 2002)
# Tests used:
# [1] = test system: acid phosphatase sample derived from Escherichia blattae; test: Phosphorylation reaction of various nucleosides by acid phosphatase sample; type: biochemical; conditions: sodium pyrophosphate 15 g/dl, nucleoside 3 g/dl, enzyme 50 units/dl, pH 4.0, 35° C., 3 hours
# Protocol: Sodium pyrophosphate (15 g/dl) and inosine, guanosine, uridine, or cytidine (3 g/dl) were dissolved in sodium acetate buffer (pH 4.0), to which the enzyme sample prepared in Example 4 was added so that its concentration was 50 units/dl. The reaction mixture was incubated at 35° C. for 3 hours while maintaining pH at 4.0.
# [2] = test system: E. coli JM109/pEPI380; test: Production of various nucleoside-5′-phosphate esters using new mutant acid phosphatase gene-containing strain; type: cell-based; conditions: pyrophosphoric acid 15 g/dl, nucleoside 8 g/dl, cells 100 mg/dl dry weight, pH 4.0, 35° C., 12 hours
# Protocol: E. coli JM109/pEPI380 having introduced therein the plasmid containing the new mutant acid phosphatase gene was inoculated into 50 ml of an L medium containing 100 μg/ml of ampicillin and 1 mM of IPTG, and incubated at 37° C. for 16 hours.
# Pyrophosphoric acid (15 g/dl) and 8 g/dl of inosine, […], uridine or cytidine as a phosphate acceptor were dissolved in a 100 mM acetate buffer ([…]). To this was added the above-mentioned strain such that the concentration reached 100 mg/dl in terms of the dry cell weight. The reaction was conducted at 35° C. for 12 hours while maintaining the pH at 4.0. The phosphorylation proceeded well with any of the nucleosides to form and accumulate the corresponding nucleoside-5′-phosphate esters. The nucleotide formed was only the nucleoside-5′-phosphate ester, and the formation of a nucleoside-2′-phosphate ester and a nucleoside-3′-phosphate ester as by-products was not observed at all.
# [3] = molecular target: T1, acid phosphatase sample derived from Morganella morganii (Morganella morganii, UniProt P28581); test: Phosphorylation reaction of various nucleosides by acid phosphatase sample; type: biochemical; conditions: sodium pyrophosphate 10 g/dl, nucleoside 2 g/dl, enzyme 50 units/dl, pH 4.0, 30° C., 3 hours
# T1 construct: made in house; host or cells: Morganella morganii NCIMB 10466 (native strain, not recombinant; purified from cell-free extract)
# Protocol: Sodium pyrophosphate (10 g/dl) and inosine, guanosine, uridine, or cytidine (2 g/dl) as a phosphate group acceptor were dissolved in sodium acetate buffer (pH 4.0), to which the enzyme sample prepared in Example 1 was added so that its concentration was 50 units/dl. The reaction mixture was incubated at 30° C. for 3 hours while maintaining pH at 4.0.
# [4] = test system: Escherichia coli JM109/pEPI330; test: Production of various nucleoside-5′-phosphate esters using microbial cells of the mutant strain; type: cell-based; conditions: sodium pyrophosphate 12 g/dl, nucleoside 6 g/dl, cells 200 mg/dl dry weight, pH 4.0, 35° C., 32 hours
# Protocol: Escherichia coli JM109/pEPI330 into which the plasmid containing the gene encoding the acid phosphatase with lowered phosphomonoesterase activity had been introduced was inoculated to an L medium (50 ml) containing 100 μg/ml of ampicillin and 1 mM of IPTG, and it was cultivated at 37° C. for 16 hours.
# Sodium pyrophosphate (12 g/dl), and inosine, guanosine, uridine, or cytidine (6 g/dl) as a phosphate group acceptor were dissolved in 100 mM sodium acetate buffer (pH 4.0), to which the microbial cells described above were added to give a cell concentration of 200 mg/dl as converted into a dry weight of the cells. The reaction mixture was incubated at 35° C. for 32 hours while maintaining pH at 4.0. Produced nucleotide contained only nucleoside-5′-phosphate ester. By-production of nucleoside-2′-phosphate ester and nucleoside-3′-phosphate ester was not observed at all.
# [5] = 5′-inosinic acid production by purified enzyme sample at various pH; type: biochemical; conditions: enzyme 50 units/dl, pH 4.0, 30° C., 3 hours
# Protocol: Sodium pyrophosphate (10 g/dl) and inosine (2 g/dl) were dissolved in sodium acetate buffers each having pH of 5.5, 5.0, 4.5, 4.0, and 3.5, to which the enzyme sample described above was added so that a concentration of 50 units/dl was obtained. The reaction mixture was incubated at 30° C. for 6 hours while maintaining each pH, and the amount of produced 5′-inosinic acid was measured along with passage of time. Produced inosinic acid contained only 5′-inosinic acid. Production of 2′-inosinic acid and 3′-inosinic acid by-products was not observed at all. The velocity of 5′-inosinic acid production was maximum at pH 5.0. However, the maximum accumulated amount of 5′-inosinic acid was higher at lower pH. The reaction condition at pH 4.0 was most efficient for production of 5′-inosinic acid, in which 5′-inosinic acid was produced and accumulated in an amount of 2.60 g/dl by performing the reaction for 3 hours.
# Sodium pyrophosphate (15 g/dl) and inosine (3 g/dl) were dissolved in sodium acetate buffers each having pH of 5.5, 5.0, 4.5, 4.0, and 3.5, to which the enzyme sample described above was added so that a concentration of 50 units/dl was obtained. The reaction mixture was incubated at 30° C. for 6 hours while maintaining each pH, and the amount of produced 5′-inosinic acid was measured along with passage of time. Produced inosinic acid contained only 5′-inosinic acid. […]
# [6] = Properties of the purified acid phosphatase; type: biochemical; conditions: for Temperature stability (stable up to): treatment at pH 7.0 for 30 minutes
# Protocol: The transphosphorylation activity was measured under the following condition using inosine as the substrate. The reaction was performed at pH 5.0 at 30° C. for 10 minutes in a reaction solution (1 ml) containing 40 μmol/ml of inosine, 100 μmol/ml of sodium pyrophosphate, 100 μmol/ml of sodium acetate buffer (pH 5.0), and an enzyme. The reaction was stopped by adding 200 μl of 2 N hydrochloric acid. After that, precipitates were removed by centrifugation. Then, 5′-inosinic acid produced by the transphosphorylation reaction was quantitatively measured. The amount of enzyme to produce 1 μmol of 5′-inosinic acid per 1 minute under this standard reaction condition was defined as 1 unit.
# The phosphomonoesterase activity was measured under the following condition using 5′-inosinic acid as a substrate. The reaction was performed at 30° C. for 10 minutes in a reaction solution (1 ml) containing 10 μmol/ml of 5′-inosinic acid, 100 μmol/ml of MES/NaOH buffer (pH 6.0), and an enzyme. The reaction was stopped by adding 200 μl of 2 N hydrochloric acid. After that, precipitates were removed by centrifugation. Then, inosine produced by the hydrolytic reaction was quantitatively measured. An amount of enzyme to produce 1 μmol of inosine per 1 minute under this standard reaction condition was defined as 1 unit.
# [7] = phosphate ester hydrolytic reaction
Molecule,Amount Produced (nucleoside-5′-ester) [1],Amount of the Product (nucleoside-5′-phosphate ester) [2],Amount Produced (nucleoside-5′-ester) [3],Amount Produced (nucleoside-5′-phosphate ester) [4],"5′-inosinic acid produced and accumulated ([5]; sodium pyrophosphate 15 g/dl, inosine 3 g/dl)",Optimum temperature [6],phosphate ester hydrolytic activity (phosphomonoesterase activity) higher than the transphosphorylation activity [6],"Optimum pH [6, 7]",Optimum pH ([6]; transphosphorylation reaction),Temperature stability (stable up to) [6],"5′-inosinic acid produced and accumulated ([5]; sodium pyrophosphate 10 g/dl, inosine 2 g/dl)"
"Nc1ccn([C@@H]2O[C@H](CO)[C@@H](O)[C@H]2O)c(=O)n1 [Cytidine, cytidine]",1.22 g/dL,10.65 g/dL,0.98 g/dL,6.60 g/dL,,,,,,,
"Nc1nc2c(ncn2[C@@H]2O[C@H](CO)[C@@H](O)[C@H]2O)c(=O)[nH]1 [Guanosine, guanosine]",1.05 g/dL,5.78 g/dL,1.90 g/dL,4.77 g/dL,,,,,,,
"OC[C@H]1O[C@@H](n2cnc3c(O)ncnc32)[C@H](O)[C@@H]1O [Inosine, inosine]",1.56 g/dL,12.05 g/dL,2.60 g/dL,7.45 g/dL,,,,,,,
"O=c1ccn([C@@H]2O[C@H](CO)[C@@H](O)[C@H]2O)c(=O)[nH]1 [Uridine, uridine]",1.87 g/dL,13.28 g/dL,1.30 g/dL,8.93 g/dL,,,,,,,
Acid Phosphatase Derived from Escherichia blattae: enzyme purified from cell-free extract of Escherichia blattae JCM 1650 (SEQ ID NO: 8) (protein) LALVATGNDTTTKPDLYYLKNSEAINSLALLPPPPAVGSIAFLNDQAMYEQGRLLRNTERGKLAAEDANLSSGGVANAFSGAFGSPITEKDAPALHKLLTNMIEDAGDLATRSAKDHYMRIRPFAFYGVSTCNTTEQDKLSKNGSYPSGHTSIGWATALVLAEINPQRQNEILKRGYELGQSRVICGYHWQSDVDAARVVGSAVVATLHTNPAFQQQLQKAKAEFAQHQKK,,,,,1.56 g/dL,about 35 °C,not less than 30 times,6.5,5.2,up to 40 °C,
Acid Phosphatase Derived from Morganella morganii: enzyme purified from cell-free extract of Morganella morganii NCIMB 10466 (SEQ ID NO: 4) (protein) AIPAGNDATTKPDLYYLKNEQAIDSLKLLPPPPEVGSIQFLNDQAMYEKGRMLRNTERGKQAQADADLAAGGVATAFSGAFGYPITEKDSPELYKLLTNMIEDAGDLATRSAKEHYMRIRPFAFYGTETCNTKDQKKLSTNGSYPSGHTSIGWATALVLAEVNPANQDAILERGYQLGQSRVICGYHWQSDVDAARIVGSAAVATLHSDPAFQAQLAKAKQEFAQKSQK,,,,,,about 35 °C,not less than 20 times,6.5,5.2,up to 30 °C,2.60 g/dL
